# Assay results published in PMC6639057 (Investigational new drugs, 2018).
# Where “and” joins values, the source holds several entries; their conditions need not be identical. Equal values may be shown once.
# Tested on: patients with advanced solid tumors
# Assay: Adverse events
# [1] = all patients, dose escalation and dose expansion (N = 105)
# [2] = escalation 30 mg + G-CSF (n = 6)
# [3] = escalation 35 mg + G-CSF (n = 3)
smiles,measurement,setting,value
Cc1csc(-c2nnc(Nc3ccc(Oc4ncccc4-c4ccnc(N)n4)cc3)c3ccccc23)c1 [AMG 900],AEs leading to discontinuation of AMG 900,Total (N = 105),25 (24) n (%)
same,All treatment-emergent AEs,Total (N = 105),105 (100) n (%)
same,All treatment-related AEs,Total (N = 105),98 (93) n (%)
same,Fatal AEs,Total (N = 105),5 (5) n (%)
same,Grade ≥ 3 AEs,Total (N = 105),79 (75) n (%)
same,Grade ≥ 3 treatment-related AEs,Total (N = 105),61 (58) n (%)
same,Grade ≥ 3 treatment-related AEs: Anemia,Total (N = 105),24 (23) n (%)
same,Grade ≥ 3 treatment-related AEs: Diarrhea,Total (N = 105),4 (4) n (%)
same,Grade ≥ 3 treatment-related AEs: Fatigue,Total (N = 105),5 (5) n (%)
same,Grade ≥ 3 treatment-related AEs: Febrile neutropenia,Total (N = 105),10 (10) n (%)
same,Grade ≥ 3 treatment-related AEs: Hemoglobin decreased,Total (N = 105),4 (4) n (%)
same,Grade ≥ 3 treatment-related AEs: Leukopenia,Total (N = 105),15 (14) n (%)
same,Grade ≥ 3 treatment-related AEs: Lymphopenia,Total (N = 105),4 (4) n (%)
same,Grade ≥ 3 treatment-related AEs: Nausea,Total (N = 105),3 (3) n (%)
same,Grade ≥ 3 treatment-related AEs: Neutropenia,Total (N = 105),44 (42) n (%)
same,Grade ≥ 3 treatment-related AEs: Thrombocytopenia,Total (N = 105),13 (12) n (%)
same,Grade ≥ 3 treatment-related AEs: Vomiting,Total (N = 105),2 (2) n (%)
same,Grade ≥ 3 treatment-related AEs: White blood cell count decreased,Total (N = 105),2 (2) n (%)
same,Grade ≥ 4 AEs,Total (N = 105),40 (38) n (%)
same,Serious AEs,Total (N = 105),39 (37) n (%)
same,Treatment-related AEs that led to discontinuation of AMG 900,all patients (13 patients),12%
same,Treatment-related grade ≥ 4 AEs,all patients (31 patients),30%
same,Dose reductions or interruptions due to AEs,all patients (47 patients),45%
same,Dose reductions or interruptions,all patients (51 patients),49%
same,Treatment-related grade ≥ 3 AEs,all patients (61 patients),58%
same,Fatal AEs,all patients (five patients),5%
same,Grade ≥ 4 diarrhea (only nonhematologic grade ≥ 4 AE),all patients (n = 1),1%
same,Treatment-related grade ≥ 4 leukopenia,all patients (n = 12),11%
same,Discontinuation of AMG 900 due to AEs,"all patients (n = 25), data cutoff December 31, 2014",24%
same,Treatment-related grade ≥ 4 neutropenia,all patients (n = 30),29%
same,Grade ≥ 3 treatment-related anemia,[1],23%
same,Grade ≥ 3 treatment-related leukopenia,[1],14%
same,Grade ≥ 3 treatment-related neutropenia,[1],37% and 42%
same,Grade ≥ 3 treatment-related thrombocytopenia,[1],12%
same,Relation of fatal AEs to treatment,as judged by the investigator,none of the fatal AEs were considered treatment related
same,AEs leading to discontinuation of AMG 900,escalation 16 mg (n = 3),0 n (%)
same,All treatment-emergent AEs,escalation 16 mg (n = 3),3 (100) n (%)
same,All treatment-related AEs,escalation 16 mg (n = 3),3 (100) n (%)
same,Fatal AEs,escalation 16 mg (n = 3),0 n (%)
same,Grade ≥ 3 AEs,escalation 16 mg (n = 3),1 (33) n (%)
same,Grade ≥ 3 treatment-related AEs,escalation 16 mg (n = 3),1 (33) n (%)
same,Grade ≥ 3 treatment-related AEs: Anemia,escalation 16 mg (n = 3),1 (33) n (%)
same,Grade ≥ 3 treatment-related AEs: Diarrhea,escalation 16 mg (n = 3),0 n (%)
same,Grade ≥ 3 treatment-related AEs: Fatigue,escalation 16 mg (n = 3),0 n (%)
same,Grade ≥ 3 treatment-related AEs: Febrile neutropenia,escalation 16 mg (n = 3),0 n (%)
same,Grade ≥ 3 treatment-related AEs: Hemoglobin decreased,escalation 16 mg (n = 3),0 n (%)
same,Grade ≥ 3 treatment-related AEs: Leukopenia,escalation 16 mg (n = 3),1 (33) n (%)
same,Grade ≥ 3 treatment-related AEs: Lymphopenia,escalation 16 mg (n = 3),0 n (%)
same,Grade ≥ 3 treatment-related AEs: Nausea,escalation 16 mg (n = 3),0 n (%)
same,Grade ≥ 3 treatment-related AEs: Neutropenia,escalation 16 mg (n = 3),1 (33) n (%)
same,Grade ≥ 3 treatment-related AEs: Thrombocytopenia,escalation 16 mg (n = 3),0 n (%)
same,Grade ≥ 3 treatment-related AEs: Vomiting,escalation 16 mg (n = 3),0 n (%)
same,Grade ≥ 3 treatment-related AEs: White blood cell count decreased,escalation 16 mg (n = 3),0 n (%)
same,Grade ≥ 4 AEs,escalation 16 mg (n = 3),1 (33) n (%)
same,Serious AEs,escalation 16 mg (n = 3),0 n (%)
same,AEs leading to discontinuation of AMG 900,escalation 24 mg (n = 6),1 (17) n (%)
same,All treatment-emergent AEs,escalation 24 mg (n = 6),6 (100) n (%)
same,All treatment-related AEs,escalation 24 mg (n = 6),5 (83) n (%)
same,Fatal AEs,escalation 24 mg (n = 6),0 n (%)
same,Grade ≥ 3 AEs,escalation 24 mg (n = 6),5 (83) n (%)
same,Grade ≥ 3 treatment-related AEs,escalation 24 mg (n = 6),5 (83) n (%)
same,Grade ≥ 3 treatment-related AEs: Anemia,escalation 24 mg (n = 6),0 n (%)
same,Grade ≥ 3 treatment-related AEs: Diarrhea,escalation 24 mg (n = 6),0 n (%)
same,Grade ≥ 3 treatment-related AEs: Fatigue,escalation 24 mg (n = 6),0 n (%)
same,Grade ≥ 3 treatment-related AEs: Febrile neutropenia,escalation 24 mg (n = 6),0 n (%)
same,Grade ≥ 3 treatment-related AEs: Hemoglobin decreased,escalation 24 mg (n = 6),0 n (%)
same,Grade ≥ 3 treatment-related AEs: Leukopenia,escalation 24 mg (n = 6),2 (33) n (%)
same,Grade ≥ 3 treatment-related AEs: Lymphopenia,escalation 24 mg (n = 6),1 (17) n (%)
same,Grade ≥ 3 treatment-related AEs: Nausea,escalation 24 mg (n = 6),0 n (%)
same,Grade ≥ 3 treatment-related AEs: Neutropenia,escalation 24 mg (n = 6),4 (67) n (%)
same,Grade ≥ 3 treatment-related AEs: Thrombocytopenia,escalation 24 mg (n = 6),0 n (%)
same,Grade ≥ 3 treatment-related AEs: Vomiting,escalation 24 mg (n = 6),0 n (%)
same,Grade ≥ 3 treatment-related AEs: White blood cell count decreased,escalation 24 mg (n = 6),0 n (%)
same,Grade ≥ 4 AEs,escalation 24 mg (n = 6),3 (50) n (%)
same,Serious AEs,escalation 24 mg (n = 6),1 (17) n (%)
same,AEs leading to discontinuation of AMG 900,escalation 25 mg (n = 7),2 (29) n (%)
same,All treatment-emergent AEs,escalation 25 mg (n = 7),7 (100) n (%)
same,All treatment-related AEs,escalation 25 mg (n = 7),5 (71) n (%)
same,Fatal AEs,escalation 25 mg (n = 7),1 (14) n (%)
same,Grade ≥ 3 AEs,escalation 25 mg (n = 7),3 (43) n (%)
same,Grade ≥ 3 treatment-related AEs,escalation 25 mg (n = 7),2 (29) n (%)
same,Grade ≥ 3 treatment-related AEs: Anemia,escalation 25 mg (n = 7),2 (29) n (%)
same,Grade ≥ 3 treatment-related AEs: Diarrhea,escalation 25 mg (n = 7),0 n (%)
same,Grade ≥ 3 treatment-related AEs: Fatigue,escalation 25 mg (n = 7),0 n (%)
same,Grade ≥ 3 treatment-related AEs: Febrile neutropenia,escalation 25 mg (n = 7),0 n (%)
same,Grade ≥ 3 treatment-related AEs: Hemoglobin decreased,escalation 25 mg (n = 7),1 (14) n (%)
same,Grade ≥ 3 treatment-related AEs: Leukopenia,escalation 25 mg (n = 7),1 (14) n (%)
same,Grade ≥ 3 treatment-related AEs: Lymphopenia,escalation 25 mg (n = 7),0 n (%)
same,Grade ≥ 3 treatment-related AEs: Nausea,escalation 25 mg (n = 7),0 n (%)
same,Grade ≥ 3 treatment-related AEs: Neutropenia,escalation 25 mg (n = 7),1 (14) n (%)
same,Grade ≥ 3 treatment-related AEs: Thrombocytopenia,escalation 25 mg (n = 7),0 n (%)
same,Grade ≥ 3 treatment-related AEs: Vomiting,escalation 25 mg (n = 7),0 n (%)
same,Grade ≥ 3 treatment-related AEs: White blood cell count decreased,escalation 25 mg (n = 7),0 n (%)
same,Grade ≥ 4 AEs,escalation 25 mg (n = 7),2 (29) n (%)
same,Serious AEs,escalation 25 mg (n = 7),1 (14) n (%)
same,AEs leading to discontinuation of AMG 900,escalation 30 mg (n = 6),4 (67) n (%)
same,All treatment-emergent AEs,escalation 30 mg (n = 6),6 (100) n (%)
same,All treatment-related AEs,escalation 30 mg (n = 6),6 (100) n (%)
same,Fatal AEs,escalation 30 mg (n = 6),0 n (%)
same,Grade ≥ 3 AEs,escalation 30 mg (n = 6),6 (100) n (%)
same,Grade ≥ 3 treatment-related AEs,escalation 30 mg (n = 6),4 (67) n (%)
same,Grade ≥ 3 treatment-related AEs: Anemia,escalation 30 mg (n = 6),0 n (%)
same,Grade ≥ 3 treatment-related AEs: Diarrhea,escalation 30 mg (n = 6),0 n (%)
same,Grade ≥ 3 treatment-related AEs: Fatigue,escalation 30 mg (n = 6),0 n (%)
same,Grade ≥ 3 treatment-related AEs: Febrile neutropenia,escalation 30 mg (n = 6),0 n (%)
same,Grade ≥ 3 treatment-related AEs: Hemoglobin decreased,escalation 30 mg (n = 6),0 n (%)
same,Grade ≥ 3 treatment-related AEs: Leukopenia,escalation 30 mg (n = 6),3 (50) n (%)
same,Grade ≥ 3 treatment-related AEs: Lymphopenia,escalation 30 mg (n = 6),0 n (%)
same,Grade ≥ 3 treatment-related AEs: Nausea,escalation 30 mg (n = 6),0 n (%)
same,Grade ≥ 3 treatment-related AEs: Neutropenia,escalation 30 mg (n = 6),4 (67) n (%)
same,Grade ≥ 3 treatment-related AEs: Thrombocytopenia,escalation 30 mg (n = 6),1 (17) n (%)
same,Grade ≥ 3 treatment-related AEs: Vomiting,escalation 30 mg (n = 6),0 n (%)
same,Grade ≥ 3 treatment-related AEs: White blood cell count decreased,escalation 30 mg (n = 6),0 n (%)
same,Grade ≥ 4 AEs,escalation 30 mg (n = 6),6 (100) n (%)
same,Serious AEs,escalation 30 mg (n = 6),3 (50) n (%)
same,AEs leading to discontinuation of AMG 900,[2],1 (17) n (%)
same,All treatment-emergent AEs,[2],6 (100) n (%)
same,All treatment-related AEs,[2],6 (100) n (%)
same,Fatal AEs,[2],0 n (%)
same,Grade ≥ 3 AEs,[2],5 (83) n (%)
same,Grade ≥ 3 treatment-related AEs,[2],3 (50) n (%)
same,Grade ≥ 3 treatment-related AEs: Anemia,[2],1 (17) n (%)
same,Grade ≥ 3 treatment-related AEs: Diarrhea,[2],0 n (%)
same,Grade ≥ 3 treatment-related AEs: Fatigue,[2],0 n (%)
same,Grade ≥ 3 treatment-related AEs: Febrile neutropenia,[2],0 n (%)
same,Grade ≥ 3 treatment-related AEs: Hemoglobin decreased,[2],0 n (%)
same,Grade ≥ 3 treatment-related AEs: Leukopenia,[2],2 (33) n (%)
same,Grade ≥ 3 treatment-related AEs: Lymphopenia,[2],0 n (%)
same,Grade ≥ 3 treatment-related AEs: Nausea,[2],0 n (%)
same,Grade ≥ 3 treatment-related AEs: Neutropenia,[2],3 (50) n (%)
same,Grade ≥ 3 treatment-related AEs: Thrombocytopenia,[2],2 (33) n (%)
same,Grade ≥ 3 treatment-related AEs: Vomiting,[2],0 n (%)
same,Grade ≥ 3 treatment-related AEs: White blood cell count decreased,[2],0 n (%)
same,Grade ≥ 4 AEs,[2],2 (33) n (%)
same,Serious AEs,[2],3 (50) n (%)
same,AEs leading to discontinuation of AMG 900,[3],0 n (%)
same,All treatment-emergent AEs,[3],3 (100) n (%)
